The first assay deals with T1, LYP (Homo sapiens, UniProt Q9Y2R2).
T1 construct: made in house; host or cells: E. coli
T1 sequence (Q9Y2R2 1-807): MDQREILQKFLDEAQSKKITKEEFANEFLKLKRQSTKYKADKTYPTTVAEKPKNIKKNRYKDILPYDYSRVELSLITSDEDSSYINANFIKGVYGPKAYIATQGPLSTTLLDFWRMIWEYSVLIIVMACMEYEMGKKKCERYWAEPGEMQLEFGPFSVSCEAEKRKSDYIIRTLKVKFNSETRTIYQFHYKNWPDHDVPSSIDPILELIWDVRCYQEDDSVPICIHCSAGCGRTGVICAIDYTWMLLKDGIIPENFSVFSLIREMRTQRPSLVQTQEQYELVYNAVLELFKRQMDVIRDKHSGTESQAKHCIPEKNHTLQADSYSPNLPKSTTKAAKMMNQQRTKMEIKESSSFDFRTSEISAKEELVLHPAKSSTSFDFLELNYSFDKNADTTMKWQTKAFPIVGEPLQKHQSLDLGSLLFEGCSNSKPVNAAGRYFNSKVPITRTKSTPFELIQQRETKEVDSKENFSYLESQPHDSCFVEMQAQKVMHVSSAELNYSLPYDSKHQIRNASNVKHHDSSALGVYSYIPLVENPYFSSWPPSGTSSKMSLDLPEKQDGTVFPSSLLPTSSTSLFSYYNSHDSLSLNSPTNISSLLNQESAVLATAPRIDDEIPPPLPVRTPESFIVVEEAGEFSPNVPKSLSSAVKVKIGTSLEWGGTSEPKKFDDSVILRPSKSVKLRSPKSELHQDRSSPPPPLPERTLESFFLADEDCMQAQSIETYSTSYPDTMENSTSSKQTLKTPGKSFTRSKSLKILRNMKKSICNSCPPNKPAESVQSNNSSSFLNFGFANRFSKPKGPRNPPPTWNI
As to the kind of experiment: Tyrosine phosphatase selectivity (pNPP substrate), LYP. In kind it is biochemical. As to conditions: LYP, pNPP substrate. The procedure: (§1) This experiment evaluated the selectivity of the disclosed compounds against tyrosine phosphatases, including SHP1, HePTP, Laforin, LMWPTP, LYP, PTP1B, PRL2, SSU72, VHR, FAP1, STEP, CDC14A, CD45, MEG2, and PP5, all expressed and purified from E. coli.
(§2) Phosphatase activity was measured using p-nitrophenyl phosphate (pNPP) (Fisher Scientific) as the substrate in 50 mM 3,3-dimethylglutaric acid buffer (pH 7.0, containing 1 mM EDTA), with ionic strength adjusted to 0.15 M with NaCl. […] After 10-60 minutes, the reaction was quenched by adding 20 µL of 5 N NaOH. Wells without enzyme were used as controls for correction. The amount of the product, p-nitrophenol, was determined by measuring the absorbance at 405 nm using a Spectra MAX340 microplate spectrophotometer (Molecular Devices), with a molar extinction coefficient of 18000 M^-1cm^-1.
(§3) Data were analyzed using GraphPad Prism software. Dose-response curves were obtained by fitting data using the nonlinear S-curve regression Dose-response-inhibition equation, and IC50 values were calculated.
For the compound `O=C(Nc1ccc(-c2cc3cc(F)c(-c4nnn[nH]4)cc3n2C2CCC2)cc1)C(=O)Nc1ccc(N2CC3COCC3C2)cc1` (centres unmarked) [Example 114], inhibition was half-maximal at 100 nM (IC50).
On the same count and under the same terms, for `Cn1cc(-c2ccc(NC(=O)C(=O)Nc3ccc(-c4cc5cc(F)c(-c6nnc(C(F)(F)F)[nH]6)cc5n4C4CCC4)cc3)cc2)cn1` [Example 124] the value was over 100000 nM.

Staying with this assay, now noted: selectivity ratio LYP over SHP2.
For `O=C(Nc1ccc(-c2cc3cc(F)c(-c4nnn[nH]4)cc3n2C2CCC2)cc1)C(=O)Nc1ccc(N2CC3COCC3C2)cc1` (centres unmarked) [Example 114], the “IC50PTP/IC50SHP2 LYP” value came to 1.3.
On the same count and under the same terms, to `Cn1cc(-c2ccc(NC(=O)C(=O)Nc3ccc(-c4cc5cc(F)c(-c6nnc(C(F)(F)F)[nH]6)cc5n4C4CCC4)cc3)cc2)cn1` [Example 124] belongs 139.7.

In another assay the target is T2, STEP (Homo sapiens, UniProt P54829).
T2 construct: made in house; host or cells: E. coli
T2 sequence (P54829 1-565): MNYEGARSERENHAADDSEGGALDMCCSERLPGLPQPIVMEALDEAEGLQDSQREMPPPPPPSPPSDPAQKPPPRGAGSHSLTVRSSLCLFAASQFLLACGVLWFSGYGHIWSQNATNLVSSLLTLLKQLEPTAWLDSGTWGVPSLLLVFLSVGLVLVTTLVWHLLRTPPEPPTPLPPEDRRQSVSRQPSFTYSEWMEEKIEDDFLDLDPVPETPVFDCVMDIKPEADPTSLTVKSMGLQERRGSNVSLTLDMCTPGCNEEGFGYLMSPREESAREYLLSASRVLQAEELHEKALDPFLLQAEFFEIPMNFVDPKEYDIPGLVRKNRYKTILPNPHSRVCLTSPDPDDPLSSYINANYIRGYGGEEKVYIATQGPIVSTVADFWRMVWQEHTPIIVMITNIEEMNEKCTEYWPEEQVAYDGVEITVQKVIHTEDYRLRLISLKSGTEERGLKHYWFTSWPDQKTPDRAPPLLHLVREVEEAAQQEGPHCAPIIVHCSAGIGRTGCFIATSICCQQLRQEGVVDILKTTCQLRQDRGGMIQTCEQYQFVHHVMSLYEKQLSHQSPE
As to the kind of experiment: Tyrosine phosphatase selectivity (pNPP substrate), STEP. In kind it is biochemical. As to conditions: STEP, pNPP substrate. As for the experimental part: as §1, §2, §3
In turn, `O=C(Nc1ccc(-c2cc3cc(F)c(-c4nnn[nH]4)cc3n2C2CCC2)cc1)C(=O)Nc1ccc(N2CC3COCC3C2)cc1` (centres unmarked) [Example 114] returned an IC50 of 1830 nM.
On to `Cn1cc(-c2ccc(NC(=O)C(=O)Nc3ccc(-c4cc5cc(F)c(-c6nnc(C(F)(F)F)[nH]6)cc5n4C4CCC4)cc3)cc2)cn1` [Example 124], for which the IC50 is over 100000 nM.

The assay is the same for the next values; noted with them: selectivity ratio STEP over SHP2.
Regarding `O=C(Nc1ccc(-c2cc3cc(F)c(-c4nnn[nH]4)cc3n2C2CCC2)cc1)C(=O)Nc1ccc(N2CC3COCC3C2)cc1` (centres unmarked) [Example 114], the “IC50PTP/IC50SHP2 STEP” value is on record as 25.4.
Same read-out and setting: for `Cn1cc(-c2ccc(NC(=O)C(=O)Nc3ccc(-c4cc5cc(F)c(-c6nnc(C(F)(F)F)[nH]6)cc5n4C4CCC4)cc3)cc2)cn1` [Example 124] the value was 139.7.

The next assay addresses T3, PTP1B (Homo sapiens, UniProt P18031).
T3 construct: made in house; host or cells: E. coli
T3 sequence (P18031 1-435): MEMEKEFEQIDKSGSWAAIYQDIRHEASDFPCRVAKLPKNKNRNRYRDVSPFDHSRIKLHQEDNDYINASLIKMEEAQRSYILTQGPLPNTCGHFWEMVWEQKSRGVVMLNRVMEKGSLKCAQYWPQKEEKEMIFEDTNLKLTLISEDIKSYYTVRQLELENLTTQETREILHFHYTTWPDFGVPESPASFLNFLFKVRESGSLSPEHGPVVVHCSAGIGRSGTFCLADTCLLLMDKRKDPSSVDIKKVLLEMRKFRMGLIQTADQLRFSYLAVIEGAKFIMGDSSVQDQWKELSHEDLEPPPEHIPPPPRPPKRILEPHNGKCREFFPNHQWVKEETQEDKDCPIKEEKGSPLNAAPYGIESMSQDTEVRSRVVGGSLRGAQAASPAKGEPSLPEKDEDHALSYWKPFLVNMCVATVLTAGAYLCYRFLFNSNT
The experiment in a line: Tyrosine phosphatase selectivity (pNPP substrate), PTP1B. In kind it is biochemical. As to conditions: PTP1B, pNPP substrate. As for the experimental part:
as §1, §2, §3
In the case of `O=C(Nc1ccc(-c2cc3cc(F)c(-c4nnn[nH]4)cc3n2C2CCC2)cc1)C(=O)Nc1ccc(N2CC3COCC3C2)cc1` (centres unmarked) [Example 114], 470 nM corresponded to half-maximal inhibition (IC50).
Still for that read-out and setting: to `Cn1cc(-c2ccc(NC(=O)C(=O)Nc3ccc(-c4cc5cc(F)c(-c6nnc(C(F)(F)F)[nH]6)cc5n4C4CCC4)cc3)cc2)cn1` [Example 124] belongs over 100000 nM.

The assay is the same for the next values; noted with them: selectivity ratio PTP1B over SHP2.
On to `O=C(Nc1ccc(-c2cc3cc(F)c(-c4nnn[nH]4)cc3n2C2CCC2)cc1)C(=O)Nc1ccc(N2CC3COCC3C2)cc1` (centres unmarked) [Example 114], for which the “IC50PTP/IC50SHP2 PTP1B” value is recorded as 6.5.
Still for that read-out and setting: for `Cn1cc(-c2ccc(NC(=O)C(=O)Nc3ccc(-c4cc5cc(F)c(-c6nnc(C(F)(F)F)[nH]6)cc5n4C4CCC4)cc3)cc2)cn1` [Example 124] the value was 139.7.

In a further assay the target is T4, Laforin (Homo sapiens, UniProt O95278).
T4 construct: made in house; host or cells: E. coli
T4 sequence (O95278 1-331): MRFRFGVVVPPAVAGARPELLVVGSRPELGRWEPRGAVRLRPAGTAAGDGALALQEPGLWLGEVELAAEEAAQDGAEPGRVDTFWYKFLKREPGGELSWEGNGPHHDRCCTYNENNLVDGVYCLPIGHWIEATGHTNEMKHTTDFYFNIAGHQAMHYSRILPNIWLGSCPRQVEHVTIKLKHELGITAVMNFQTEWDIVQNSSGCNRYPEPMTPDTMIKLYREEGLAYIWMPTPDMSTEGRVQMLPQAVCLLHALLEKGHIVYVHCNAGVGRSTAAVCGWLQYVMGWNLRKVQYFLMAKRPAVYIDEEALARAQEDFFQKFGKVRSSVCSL
The experiment in a line: Tyrosine phosphatase selectivity (pNPP substrate), Laforin. In kind it is biochemical. The following applies: Laforin, pNPP substrate. The procedure:
as §1, §2, §3
As to `O=C(Nc1ccc(-c2cc3cc(F)c(-c4nnn[nH]4)cc3n2C2CCC2)cc1)C(=O)Nc1ccc(N2CC3COCC3C2)cc1` (centres unmarked) [Example 114], half-maximal inhibition (IC50) required 2440 nM.
Same read-out and setting: to `Cn1cc(-c2ccc(NC(=O)C(=O)Nc3ccc(-c4cc5cc(F)c(-c6nnc(C(F)(F)F)[nH]6)cc5n4C4CCC4)cc3)cc2)cn1` [Example 124] belongs over 100000 nM.

Still in this assay, the particulars now being: selectivity ratio Laforin over SHP2.
Take `O=C(Nc1ccc(-c2cc3cc(F)c(-c4nnn[nH]4)cc3n2C2CCC2)cc1)C(=O)Nc1ccc(N2CC3COCC3C2)cc1` (centres unmarked) [Example 114]: the “IC50PTP/IC50SHP2 Laforin” value is 33.8.
On the same count and under the same terms, for `Cn1cc(-c2ccc(NC(=O)C(=O)Nc3ccc(-c4cc5cc(F)c(-c6nnc(C(F)(F)F)[nH]6)cc5n4C4CCC4)cc3)cc2)cn1` [Example 124] the value was 139.7.

Another assay has as its target T5, SSU72 (Homo sapiens, UniProt Q9NP77).
T5 construct: made in house; host or cells: E. coli
T5 sequence (Q9NP77 1-194): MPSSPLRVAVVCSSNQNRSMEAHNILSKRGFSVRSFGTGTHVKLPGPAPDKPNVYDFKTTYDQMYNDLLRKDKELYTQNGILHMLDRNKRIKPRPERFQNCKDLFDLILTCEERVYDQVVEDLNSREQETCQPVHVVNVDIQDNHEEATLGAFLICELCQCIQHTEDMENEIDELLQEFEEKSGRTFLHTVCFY
The experiment in a line: Tyrosine phosphatase selectivity (pNPP substrate), SSU72. In kind it is biochemical. As to conditions: SSU72, pNPP substrate. The procedure: as §1, §2, §3
With `O=C(Nc1ccc(-c2cc3cc(F)c(-c4nnn[nH]4)cc3n2C2CCC2)cc1)C(=O)Nc1ccc(N2CC3COCC3C2)cc1` (centres unmarked) [Example 114], the IC50 was 90 nM.
The same measure, in the same setting: for `Cn1cc(-c2ccc(NC(=O)C(=O)Nc3ccc(-c4cc5cc(F)c(-c6nnc(C(F)(F)F)[nH]6)cc5n4C4CCC4)cc3)cc2)cn1` [Example 124] the value was over 100000 nM.

Still in this assay, the particulars now being: selectivity ratio SSU72 over SHP2.
Turning to `O=C(Nc1ccc(-c2cc3cc(F)c(-c4nnn[nH]4)cc3n2C2CCC2)cc1)C(=O)Nc1ccc(N2CC3COCC3C2)cc1` (centres unmarked) [Example 114], the “IC50PTP/IC50SHP2 SSU72” value is listed as 1.2.
The same measure, in the same setting: for `Cn1cc(-c2ccc(NC(=O)C(=O)Nc3ccc(-c4cc5cc(F)c(-c6nnc(C(F)(F)F)[nH]6)cc5n4C4CCC4)cc3)cc2)cn1` [Example 124] the value was 139.7.

These data come from patent EP4741383A1, “COMPOUND AND USE THEREOF AS ANTI-CANCER DRUG” (Tyligand Bioscience (Shanghai) Limited, priority 2023, dated 2025).
